Test results: PMC1281266, “Impact of Polychlorinated Biphenyls Contamination on Estrogenic Activity in Human Male Serum” (Environmental Health Perspectives, 2005)
“Also recorded” adds a separate entry of the source.

Columns and labels:
estrogen receptor (ER) [1] = biological target: T1, estrogen receptor (ER) (Homo sapiens, UniProt P03372); test: ER-CALUX bioassay, antiestrogenicity: decrease in response to E2 in co-treated T47D.Luc cells; type: cell-based; settings: for Effect of co-treatment on ER activation by E2, in words: co-treatment with 3 pM E2, Figure 2B; for Effect on E2-induced luciferase activity (antiestrogenicity), in words: 3 pM E2, T47D.Luc cells, Figure 3
T1 construct: using the human breast carcinoma T47D.Luc cell line, stably transfected with pEREtataLuc construct; host or cells: T47D.Luc (human breast carcinoma, stably transfected with the pEREtataLuc reporter)
Method: (§1) We determined estrogenic activities of 17 prevalent PCB congeners using the ER-CALUX bioassay (BioDetection Systems) using the human breast carcinoma T47D.Luc cell line, stably transfected with pEREtataLuc construct ([Legler et al. 1999]; [Machala et al. 2004]). ER-mediated activity was also determined in the cells treated with either total serum hexane/diethyl ether extracts or with a fraction of POPs obtained by a consequent sulfuric acid/silica fractionation. […] We determined cytotoxicity of extracts or individual PCBs by a neutral red uptake assay after a 24-hr exposure.

T47D.Luc cells = test: Neutral red uptake cytotoxicity assay, 24-hr exposure; type: cell-based, human; settings: lowest concentration causing a significant decrease of cell viability; 24-hr exposure Neutral Red uptake
Method: as §1

estrogen receptor (ER) [2] = biological target: T1, estrogen receptor (ER); test: ER-CALUX bioassay, estrogenic (ER-mediated) activity: induction of luciferase in T47D.Luc cells; type: cell-based; settings: for ER-mediated activity (induction of ER-dependent luciferase activity), in words: individual congeners, micromolar concentrations, Figure 2A; for ER-activated activity IEF (induction equivalency factor): ratio between EC50 of E2 and the PCB concentration inducing the same level of luciferase activity
rat uterus [3] = system: rat uterus; design: method as in Arcaro et al. 1999; settings: ref Arcaro et al. 1999; cited from earlier work
MCF-7 cells [4] = system: MCF-7 cells; design: method as in Arcaro et al. 1999; settings: ref Arcaro et al. 1999; cited from earlier work
BG1LucE2 cells = system: BG1LucE2 cells; design: method as in Rogers and Denison 2000; settings: 10 μM concentrations; ref Rogers and Denison 2000; cited from earlier work
MCF-7 cells [5] = system: MCF-7 cells; design: method as in Bonenfeld-Jorgensen et al. 2001; settings: ref Bonenfeld-Jorgensen et al. 2001; cited from earlier work
rat uterus [6] = system: rat uterus; design: method as in Li et al. 1994; settings: at very high concentrations; ref Li et al. 1994; cited from earlier work
AhR = biological target: T2, AhR (Rattus norvegicus, UniProt P41738); test: DR-CALUX luciferase reporter gene assay, dioxin-like activity; type: cell-based; settings: data not shown
T2 construct: a luciferase reporter gene assay (DR-CALUX; BioDetection Systems, Amsterdam, the Netherlands) as described previously; rat hepatoma H4IIE.Luc by own knowledge of the DR-CALUX assay
T2 sequence (P41738 10-853): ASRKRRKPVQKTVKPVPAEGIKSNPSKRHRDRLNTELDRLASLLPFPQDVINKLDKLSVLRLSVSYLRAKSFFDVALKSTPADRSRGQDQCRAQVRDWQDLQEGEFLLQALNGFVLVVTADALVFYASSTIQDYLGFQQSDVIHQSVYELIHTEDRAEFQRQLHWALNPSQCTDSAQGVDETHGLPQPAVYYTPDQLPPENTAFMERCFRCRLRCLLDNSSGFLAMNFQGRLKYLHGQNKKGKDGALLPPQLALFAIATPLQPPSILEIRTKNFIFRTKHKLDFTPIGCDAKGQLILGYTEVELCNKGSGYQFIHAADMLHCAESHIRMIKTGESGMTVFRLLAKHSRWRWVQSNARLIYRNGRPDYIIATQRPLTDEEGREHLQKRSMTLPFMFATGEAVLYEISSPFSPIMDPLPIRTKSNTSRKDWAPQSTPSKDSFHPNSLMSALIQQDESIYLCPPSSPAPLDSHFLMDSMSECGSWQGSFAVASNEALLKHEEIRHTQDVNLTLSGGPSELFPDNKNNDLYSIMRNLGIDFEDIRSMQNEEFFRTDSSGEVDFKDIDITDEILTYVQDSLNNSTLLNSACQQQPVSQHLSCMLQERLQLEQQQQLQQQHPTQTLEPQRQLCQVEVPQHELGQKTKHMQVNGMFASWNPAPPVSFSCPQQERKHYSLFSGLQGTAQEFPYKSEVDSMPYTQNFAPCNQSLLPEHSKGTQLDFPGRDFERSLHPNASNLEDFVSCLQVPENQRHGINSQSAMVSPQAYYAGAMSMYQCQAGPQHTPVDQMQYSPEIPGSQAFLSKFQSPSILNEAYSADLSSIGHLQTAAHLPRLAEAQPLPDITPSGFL
Method: We determined the levels of cytochrome P450 (CYP) 1A1 and CYP1B1 mRNA in human peripheral lymphocytes by RNA extraction and a quantitative reverse-transcriptase-polymerase chain reaction (RT-PCR) method using TaqMan technology ([Canton et al. 2003]; [van Duursen et al. 2005]). The in vitro potencies of POPs present in serum to activate AhR were measured in sulfuric acid/silica-treated extracts by a luciferase reporter gene assay (DR-CALUX; BioDetection Systems, Amsterdam, the Netherlands) as described previously ([Murk et al. 1996]).

SMILES	Cytotoxicity LOEC (T47D.Luc cells) [µM]	ER-mediated activity (induction of ER-dependent luciferase activity), in words (estrogen receptor (ER) [2])	Effect on E2-induced luciferase activity (antiestrogenicity), in words (estrogen receptor (ER) [1])	further results
Clc1ccc(-c2ccc(Cl)cc2Cl)cc1 [PCB 28, 2,4,4′-Trichlorobiphenyl]	> 20	significant ER-mediated activity; also recorded: induced the ER-mediated activity		Effect of co-treatment on ER activation by E2, in words (estrogen receptor (ER) [1]): potentiated; EC50 (estrogen receptor (ER) [2]): 8.23 µM
Clc1ccc(Cl)c(-c2cc(Cl)ccc2Cl)c1 [PCB 52, 2,2′,5,5′-Tetrachlorobiphenyl]	> 20	significant ER-mediated activity; also recorded: induced the ER-mediated activity		Effect of co-treatment on ER activation by E2, in words (estrogen receptor (ER) [1]): potentiated; EC50 (estrogen receptor (ER) [2]): 9.52 µM
Clc1cccc(Cl)c1-c1c(Cl)cccc1Cl [PCB 54, 2,2′,6,6′-Tetrachlorobiphenyl]				Estrogenicity in the rat uterotrophic assay (rat uterus [3]): estrogenic; Estrogenicity in the MCF-7 cell focus assay (MCF-7 cells [4]): estrogenic
Clc1ccc(-c2ccc(Cl)c(Cl)c2)c(Cl)c1 [PCB 66, 2,3′,4,4′-Tetrachlorobiphenyl]	> 40	significant ER-mediated activity; also recorded: induced the ER-mediated activity		ER-mediated (estrogenic) activity in BG1LucE2 cells (BG1LucE2 cells): estrogenic; EC50 (estrogen receptor (ER) [2]): 24.3 µM
Clc1ccc(-c2cc(Cl)c(Cl)cc2Cl)cc1 [PCB 74, 2,4,4′,5-Tetrachlorobiphenyl]	> 40	significant ER-mediated activity; also recorded: induced the ER-mediated activity		EC50 (estrogen receptor (ER) [2]): 17 µM
Clc1ccc(-c2ccc(Cl)c(Cl)c2)cc1Cl [PCB 77, 3,3′,4,4′-tetrachlorobiphenyl]				ER-mediated (estrogenic) activity in BG1LucE2 cells (BG1LucE2 cells): no ER-mediated activity
Clc1ccc(Cl)c(-c2c(Cl)ccc(Cl)c2Cl)c1 [PCB 95, 2,2′,3,5′,6-pentachlorobiphenyl]				ER-mediated (estrogenic) activity in BG1LucE2 cells (BG1LucE2 cells): estrogenic
Clc1ccc(-c2cc(Cl)c(Cl)cc2Cl)c(Cl)c1 [PCB 99, 2,2′,4,4′,5-Pentachlorobiphenyl]	> 40	only partial ER agonists; also recorded: induced the ER-mediated activity		ER-activated activity IEC (induction equivalency concentration) (estrogen receptor (ER) [2]): WI (key: NI: no significant induction/inhibition; WI: weak induction/inhibition (< 50% of estradiol maximum induction); ER-activated activity IEF (induction equivalency factor) (estrogen receptor (ER) [2]): WI (weak induction/inhibition (< 50% of estradiol maximum induction)
Clc1ccc(-c2ccc(Cl)c(Cl)c2Cl)cc1Cl [PCB 105, 2,3,3′,4,4′-Pentachlorobiphenyl]	> 40	only partial ER agonists; also recorded: induced the ER-mediated activity		ER-activated activity IEC (induction equivalency concentration) (estrogen receptor (ER) [2]): WI (key: NI: no significant induction/inhibition; WI: weak induction/inhibition (< 50% of estradiol maximum induction); ER-activated activity IEF (induction equivalency factor) (estrogen receptor (ER) [2]): WI (weak induction/inhibition (< 50% of estradiol maximum induction)
Clc1ccc(-c2cc(Cl)c(Cl)cc2Cl)cc1Cl [PCB 118, 2,3′,4,4′,5-Pentachlorobiphenyl]	> 20			
Clc1ccc(-c2cc(Cl)c(Cl)c(Cl)c2)cc1Cl [PCB 126, 3,3′,4,4′,5-Pentachlorobiphenyl]	> 40		not elicited	
Clc1cc(Cl)c(-c2ccc(Cl)c(Cl)c2Cl)cc1Cl [PCB 138, 2,2′,3,4,4′,5′-Hexachlorobiphenyl]	20	did not induce	significantly decreased	IC50 (estrogen receptor (ER) [1]): 10.1 µM; Antiestrogenic effects in reporter gene and cell proliferation MCF-7 assays (MCF-7 cells [5]): Antiestrogenic effects
Clc1cc(Cl)c(-c2cc(Cl)c(Cl)cc2Cl)cc1Cl [PCB 153, 2,2′,4,4′,5,5′-Hexachlorobiphenyl]	20			Antiestrogenic effects in reporter gene and cell proliferation MCF-7 assays (MCF-7 cells [5]): Antiestrogenic effects; Estrogenicity in the acute 2-day immature rat uterine weight assay (rat uterus [6]): estrogenic
Clc1ccc(-c2cc(Cl)c(Cl)c(Cl)c2Cl)cc1Cl [PCB 156, 2,3,3′,4,4′,5-Hexachlorobiphenyl]	40			Antiestrogenicity IhEF (inhibitory equivalency factor) (estrogen receptor (ER) [1]): WI (key: NI: no significant induction/inhibition; WI: weak induction/inhibition (< 50% of estradiol maximum induction; < 50% decrease in induction of 3 pM E2)); Antiestrogenicity IC50 (estrogen receptor (ER) [1]; 50% decrease in luciferase activity induced by 3 pM E2, T47D.Luc cells): WI (weak induction/inhibition (< 50% of estradiol maximum induction; < 50% decrease in induction of 3 pM E2))
Clc1ccc(-c2cc(Cl)c(Cl)c(Cl)c2Cl)c(Cl)c1Cl [PCB 170, 2,2′,3,3′,4,4′,5-Heptachlorobiphenyl]	25	did not induce	significantly decreased	IC50 (estrogen receptor (ER) [1]): 16 µM
Clc1cc(Cl)c(-c2cc(Cl)c(Cl)c(Cl)c2Cl)cc1Cl [PCB 180, 2,2′,3,4,4′,5,5′-Heptachlorobiphenyl]	20	did not induce	significantly decreased	IC50 (estrogen receptor (ER) [1]): 9.32 µM; Antiestrogenic effects in reporter gene and cell proliferation MCF-7 assays (MCF-7 cells [5]): Antiestrogenic effects
Clc1cc(Cl)c(-c2c(Cl)c(Cl)cc(Cl)c2Cl)cc1Cl [PCB 187, 2,2′,3,4′,5,5′,6-Heptachlorobiphenyl]	20			
Clc1cc(-c2cc(Cl)c(Cl)c(Cl)c2Cl)c(Cl)c(Cl)c1Cl [PCB 194, 2,2′,3,3′,4,4′,5,5′-Octachlorobiphenyl]	25	did not induce	significantly decreased	IC50 (estrogen receptor (ER) [1]): 14.1 µM
Clc1cc(Cl)c(-c2c(Cl)c(Cl)cc(Cl)c2Cl)c(Cl)c1Cl [PCB 199, 2,2′,3,3′,4′,5,6,6′-Octachlorobiphenyl]	20	did not induce	significantly decreased	IC50 (estrogen receptor (ER) [1]): 2.85 µM
Clc1cc(Cl)c(-c2c(Cl)c(Cl)c(Cl)c(Cl)c2Cl)cc1Cl [PCB 203, 2,2′,3,4,4′,5,5′,6-Octachlorobiphenyl]	20	did not induce	significantly decreased	IC50 (estrogen receptor (ER) [1]): 3.2 µM
ClC(Cl)=C(c1ccc(Cl)cc1)c1ccc(Cl)cc1 [p,p′-DDE]				Estrogenic activity, in words (estrogen receptor (ER) [2]; data not shown): weak estrogenic; Dioxin-like activity, in words (AhR): no dioxin-like activity
